Patent US20220062245A1, “AGENT FOR IMPROVING INFERTILITY, RECURRENT MISCARRIAGE, AND STATE OF PREGNANCY” (priority 2018, published 2022)
Entries after “also recorded” stand apart in the source; their conditions may differ.

Legend:
[1] = test system: RPL (recurrent pregnancy loss) patient; conditions: cited from earlier work; for Outcome of earlier treatment: low-dose aspirin, heparin, prednisolone 5 mg/day, large-quantity γ-globulin 1 g/kg for 3 days, given in this order
[2] = Concentration of tacrolimus in the cord blood by chemiluminescence immunoassay (ECLIA); type: in vivo, human; conditions: at delivery, mother on 5 mg/day oral
[3] = test system: patient suffering from a blood type incompatible pregnancy with negative maternal Rho (D) and positive fetal Rho (D); assay: Pregnancy course and fetal/neonatal outcome in blood type incompatible pregnancy treated with tacrolimus (Example 1); type: in vivo, human
Excerpt: (§1) The patient is a person having blood type A. The patient suffering from a blood type incompatible pregnancy with negative maternal Rho (D) and positive fetal Rho (D) was subjected to the following treatments. That is, at the time of the first pregnancy, anti-D immunoglobulin was not administered during pregnancy, sensitization was effected before delivery, and the anti-D antibody titer at the time of delivery was 8-fold. In week 39, they gave birth by emergency cesarean section due to placental abruption of the upper placenta.
Two years later, […] hoped to have a second child but suffered from infecundity and was treated for sterility by in vitro fertilization; however, since the treatment was unsuccessful after five embryo transplantations, a close examination of the immune system was conducted. At that time, a marked increase (24.9) in the Th1/Th2 (Th1 32.4, Th2 1.3) ratio was recognized, the illness was judged as infecundity considered to be caused by an abnormality in the immune system, and a tacrolimus treatment was selected.
(§2) The anti-D antibody titer obtained immediately after the establishment of pregnancy was 4-fold; however, the titer reached 16-fold in week 24 and reached 32-fold in week 26 (FIG. 6, upper part). After that, migration of fetal antigens to the mother's body via the placenta was assumed to further increase, and preparation of plasmapheresis and fetal blood transfusion was initiated in preparation for a rapid increase in the antibody titer.
(§3) Furthermore, the blood flow velocity in the middle cerebral artery and the estimated body weight of the fetus were measured by fetal ultrasonography.

[4] = test system: Th1 and Th2 cells among CD4-positive cells; assay: Analysis of Th1 cells and Th2 cells in patient blood by flow cytometry; type: in vivo, human
Experimental: Analysis of Th1 Cells and Th2 Cells
For the purpose of evaluating the baseline value of the Th1/Th2 cell ratio, a total of 10 ml of venous blood was collected. Th1 cells and Th2 cells were determined by detecting the production of intracellular interferon (IFN)-γ and IL-4.
Specific staining of lymphocytes was performed by incubating whole blood together with anti-CD4-PC5 or anti-CD8-PC5-conjugated monoclonal antibody (mAbs) (Beckman Coulter, Inc., Fullerton, Calif., USA). Red blood cells (RBCs) were removed by hemolysis (using FACS Lysing solution; Becton, Dickinson and Company, BD 134 Biosciences, Franklin Lake, N.J., USA), and lymphocytes were analyzed using flow cytometry (FACSCalibur; Becton, Dickinson and Company). Activated whole blood samples were surface-stained using anti-CD4-PC5-conjugate mAbs, and then RBC hemolysis and specific intracellular staining using Fast Immune (trademark) IFN-γ-FITC/IL-4-PE (Becton, Dickinson and Company) were carried out in sequence according to the manufacturer's instructions for use. Th1 cells were defined as CD4^+ lymphocytes accompanied by intracellular IFN-γ but not by intracellular IL-4. Th2 cells were detected as CD4^+ lymphocytes accompanied by intracellular IL-4 but not by intracellular IFN-γ. The ratio of intracellular IFN-γ-positive Th cells with respect to intracellular IL-4-positive Th cells was expressed as the Th1/Th2 cell ratio.

[5] = test system: patient having a medical history of pregnancy-induced hypertensive nephropathy and HELLP syndrome; assay: Prevention or delay of onset of pregnancy-induced hypertension syndrome, HELLP syndrome and eclampsia (Example 4, Table 1); type: in vivo, human
Excerpt: A patient is a person having a medical history of pregnancy-induced hypertensive nephropathy and HELLP syndrome. […] After the delivery, pulmonary edema, disseminated intravascular coagulation (DIC), and intraperitoneal bleeding, all of which are severe complications, were recognized, and the patient received treatments such as management using an artificial respirator, supplement of albumin, and blood component transfusion.
This time, in the hematologic examination findings before pregnancy, there were no abnormalities in all of the liver function, kidney function, and coagulation function, and abnormal findings were not observed in the examination items involved in infertility such as antiphospholipid antibody syndrome (anti-CL-IgG antibody, anti-CL-IgM antibody, anti-PS/PT antibody, anti-CL-β2GP1 antibody, LAC, anti-PE-IgG antibody, and anti-PE-IgM antibody), autoimmune diseases (anti-DNA antibody and antinuclear antibody), and coagulation dysfunction.
The circumstances of the first pregnancy and the pregnancy of this time are described in Table 1.
The ratio of Th1 (CD4g^+IFN-g^+)/Th2(CD4^+IL-4^+) in CD4-positive cells is 15.2/2.1 (normal value: less than 10.3), and clear immunological abnormalities were also not observed before pregnancy [Reference Literature 12b]; however, it was assumed that after implantation of a fertilized ovum, immunity of the mother's body would be activated, and immune abnormality between the mother's body and the fetus would suppress placental construction and functions thereof, causing fetal growth restriction and hypertension during pregnancy. Considering this, the patient was treated with 1 mg/day of tacrolimus from week 4 of pregnancy, for the purpose of controlling the immunity between the mother's body and the fetus after confirmation of pregnancy.
In this case, monotherapy was carried out with 1 mg/day of tacrolimus from the early stage of pregnancy, and combined treatment of low dose aspirin (LDA) intended for HDP prevention by bloodstream improvement was not carried out [Reference Literature 13b]. Regarding the pregnancy progress, there was no problem in the second trimester of pregnancy, where the patient developed HELLP syndrome in the previous pregnancy, and pregnancy progressed smoothly to the third trimester of pregnancy; however, the patient rapidly acquired HELLP syndrome similarly to the previous pregnancy, after week 33 of pregnancy.

[6] = test system: patients with five consecutive incidences of RIF (repeated implantation failure); conditions: treated from two days before embryo transplantation to day of pregnancy test; daily dose by Th1/Th2 cell ratio; 16/25 versus 0% (0/17) untreated; cited from earlier work
NK cells = assay: NK cell activity during pregnancy (Example 4); type: in vivo, human; conditions: Example 4 patient during pregnancy, tacrolimus 1 mg/day; normal value 18% to 40%; FIG. 8
[7] = test system: patient suffering from a blood type incompatible pregnancy with negative maternal Rho (D) and positive fetal Rho (D); assay: Anti-D antibody titer by indirect Coombs test, Example 1 patient; type: in vivo, human; conditions: for Anti-D antibody titer: maternal blood, tacrolimus 4 mg/day oral
Experimental: Measurement of Anti-D Antibody Titer
The measurement is carried out by the indirect Coombs test. The indirect Coombs test is a test in which an anti-immunoglobulin antibody is added to a mixture of the blood serum of a patient and the blood of a healthy person to examine whether a hemagglutination reaction occurs (any irregular antibody present in the blood serum is detected) (for the Coombs test, see Nissan Women's Journal Vol. 59, No. 10, N-617-N-623).
as §1, §2, §3

[8] = pregnancy of this time, tacrolimus 1 mg/day, after parturition
[9] = pregnancy of this time, tacrolimus 1 mg/day, before parturition
[10] = tacrolimus 1 mg/day, after parturition
[11] = tacrolimus 1 mg/day, before parturition

CC(=O)Oc1ccccc1C(=O)O [aspirin]
Outcome of earlier treatment [1]: not successful

C[C@]12C=CC(=O)C=C1CC[C@@H]1[C@@H]2[C@@H](O)C[C@@]2(C)[C@H]1CC[C@]2(O)C(=O)CO [prednisolone]
Outcome of earlier treatment [1]: not successful

C=CCC1/C=C(\C)CC(C)CC(OC)C2OC(O)(C(=O)C(=O)N3CCCCC3C(=O)OC(/C(C)=C/C3CCC(O)C(OC)C3)C(C)C(O)CC1=O)C(C)CC2OC (stereo not drawn) [tacrolimus, 17-Allyl-1,14-dihydroxy-12-[2-(4-hydroxy-3-methoxycyclohexyl)-1-methylvinyl]-23,25-dimethoxy-13,19,21,27-tetramethyl-11,28-dioxa-4-azatricyclo[22.3.1.04,9]octacos-18-ene-2,3,10,16-tetraone]
Concentration of tacrolimus in the cord blood [2]: lower than or equal to the detection limit value | Body weight of child at birth ([3]; Example 1, tacrolimus 4 then 5 mg/day): 2834 g | Body weight of the fetus in the weeks of pregnancy ([3]; FIG. 7, estimated by fetal ultrasonography): smoothly increased | Malformations of the child ([3]; child exposed in utero to tacrolimus 4 to 5 mg/day): no external malformations or visceral malformations | Fetal anemia (blood flow velocity in the middle cerebral artery) ([3]; fetal ultrasonography during pregnancy, tacrolimus 4 then 5 mg/day): corresponded to the number of weeks; also recorded: without observing any fetal anemia; also recorded: fetal anemia was not developed during the entire course of pregnancy | Establishment of pregnancy by embryo transplantation ([3]; person, infecundity after five unsuccessful embryo transplantations, Th1/Th2 24.9, tacrolimus 4 mg/day oral): Pregnancy was established by a single embryo transplantation | Pregnancy progress in RhD incompatible pregnancy ([3]; without using plasma exchange, data not shown): satisfactory pregnancy progress was obtained | Th1 ([4]; Example 1 patient, week 28 of pregnancy, on tacrolimus 4 mg/day): tendency of increase again | Ratio (proportions) of Th1 and Th2 cells among CD4-positive cells ([4]; Example 4 patient during pregnancy, tacrolimus 1 mg/day, FIG. 8): continuously decreased | Information on fetus: Fetal growth ([5]; pregnancy of this time, tacrolimus 1 mg/day from week 4): −1.9 SD | Information on fetus: Body weight ([5]; pregnancy of this time, tacrolimus 1 mg/day from week 4, at birth): 1490 g | Complications after parturition [5, 8]: None | Symptoms: Edema [5, 8]: Negligible | Symptoms: Hypertension [5, 8]: Temporary | Proteinuria initiated (weeks of pregnancy) [5, 9]: 33 weeks of pregnancy | Symptoms: Edema [5, 9]: Negligible | Delay of onset of HELLP syndrome compared to the previous pregnancy ([5]; single administration of tacrolimus 1 mg/day, previous pregnancy untreated): about 13 weeks | Proteinuria, edema, and hypertension during pregnancy progress ([5]; tacrolimus 1 mg/day monotherapy from week 4 of pregnancy): not observed until week 32 of pregnancy | Blood examination: ALT [5, 10]: 833 U/L | Blood examination: AST [5, 10]: 898 U/L | Blood examination: Cr [5, 10]: 0.59 mg/dL | Blood examination: Hb [5, 10]: 10.5 g/dL | Blood examination: LDH [5, 10]: 1995 U/L | Blood examination: Plt [5, 10]: 2.2 10^4/µL | Blood examination: WBC [5, 10]: 8220 µL⁻¹ | Blood examination: ALT [5, 11]: 71 U/L | Blood examination: AST [5, 11]: 65 U/L | Blood examination: Cr [5, 11]: 1 mg/dL | Blood examination: Hb [5, 11]: 11 g/dL | Blood examination: LDH [5, 11]: 316 U/L | Blood examination: Plt [5, 11]: 10 10^4/µL | Blood examination: WBC [5, 11]: 8280 µL⁻¹ | Clinical pregnancy rate [6]: 64.0% | Pregnancy progress ([1]; tacrolimus 2 mg/day continuously during pregnancy, no other treatments): favorable pregnancy progress | NK cell activity (NK cells): decreased in the second trimester of pregnancy and then conspicuously increased in the examination in week 32 of pregnancy; also recorded: decreased in the second trimester and then conspicuously increased from week 32 of pregnancy | Anti-D antibody titer in the cord blood ([7]; cord blood at delivery): double | Anti-D antibody titer ([7]; immediately after the establishment of pregnancy): 4 fold | Anti-D antibody titer ([7]; week 24 of pregnancy): 16 fold | Anti-D antibody titer ([7]; week 26 of pregnancy): 32 fold

heparin
Outcome of earlier treatment [1]: not successful
